Patent publication US20220033407A1, “N-(pyridin-2-ylsulfonyl)cyclopropanecarboxamide Derivatives and their Use in the Treatment of Disease” (NOVARTIS AG, priority 2018, published 2022)

Legend:
delF508-CFTR-HRP = molecular target: T1, delF508-CFTR-HRP (Homo sapiens, UniProt P13569, DEL508-508); assay: Measurement of delF508-CFTR-HRP surface expression in CFBE41o- cells (HRP luminescence); format: cell-based; settings: for Emax: CFBE41o-, read-out: DelF508-CFTR-HRP Amax %; for EC50: mean of at least two replicates;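 on DelF508-CFTR-HRP Amax %: percent efficacy relative to a reference CFTR corrector compound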
T1 construct: expressed in transfected cells
T1 sequence (P13569 with tags, fused parts or gaps DEL508-508): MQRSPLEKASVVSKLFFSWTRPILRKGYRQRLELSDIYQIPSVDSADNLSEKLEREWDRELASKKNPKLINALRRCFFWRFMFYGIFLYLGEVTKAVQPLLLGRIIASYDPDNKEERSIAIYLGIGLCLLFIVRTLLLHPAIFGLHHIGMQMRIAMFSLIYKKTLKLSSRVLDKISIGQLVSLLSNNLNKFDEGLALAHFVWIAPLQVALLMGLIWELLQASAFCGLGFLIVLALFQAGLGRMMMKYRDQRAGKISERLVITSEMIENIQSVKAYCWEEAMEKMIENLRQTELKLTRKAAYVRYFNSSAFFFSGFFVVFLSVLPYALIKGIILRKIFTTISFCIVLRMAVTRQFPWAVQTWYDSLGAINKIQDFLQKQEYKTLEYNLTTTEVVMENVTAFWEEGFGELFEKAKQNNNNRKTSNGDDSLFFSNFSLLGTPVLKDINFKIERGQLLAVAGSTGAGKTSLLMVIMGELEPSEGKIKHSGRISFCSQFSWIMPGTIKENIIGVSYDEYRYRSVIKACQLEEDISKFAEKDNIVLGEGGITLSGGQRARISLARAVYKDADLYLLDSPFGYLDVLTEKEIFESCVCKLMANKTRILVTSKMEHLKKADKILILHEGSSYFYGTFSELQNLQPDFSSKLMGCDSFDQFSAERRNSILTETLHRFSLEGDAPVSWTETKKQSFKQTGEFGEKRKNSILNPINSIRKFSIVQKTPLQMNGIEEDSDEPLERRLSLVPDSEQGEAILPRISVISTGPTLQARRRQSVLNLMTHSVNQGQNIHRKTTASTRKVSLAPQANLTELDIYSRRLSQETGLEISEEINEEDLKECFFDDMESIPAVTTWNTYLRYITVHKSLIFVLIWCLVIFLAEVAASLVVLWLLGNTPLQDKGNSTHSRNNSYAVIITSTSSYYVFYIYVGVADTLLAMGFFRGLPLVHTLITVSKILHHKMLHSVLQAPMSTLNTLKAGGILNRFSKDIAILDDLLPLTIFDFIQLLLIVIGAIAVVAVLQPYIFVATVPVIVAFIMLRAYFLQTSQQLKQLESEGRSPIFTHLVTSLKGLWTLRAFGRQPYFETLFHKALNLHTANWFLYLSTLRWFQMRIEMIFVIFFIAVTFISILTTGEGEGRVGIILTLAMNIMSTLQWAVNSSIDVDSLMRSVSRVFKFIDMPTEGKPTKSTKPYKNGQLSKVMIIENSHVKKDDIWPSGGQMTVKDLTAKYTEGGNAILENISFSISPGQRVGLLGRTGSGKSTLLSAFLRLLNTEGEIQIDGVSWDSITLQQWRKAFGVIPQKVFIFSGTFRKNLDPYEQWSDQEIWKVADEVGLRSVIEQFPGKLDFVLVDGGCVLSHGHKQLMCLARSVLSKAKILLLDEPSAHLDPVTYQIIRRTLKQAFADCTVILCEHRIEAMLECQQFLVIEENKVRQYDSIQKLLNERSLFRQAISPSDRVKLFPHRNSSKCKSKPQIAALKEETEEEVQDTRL
In short: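 Stably transfected CFBE41o- cells carrying HRP in the fourth extracellular loop of delF508-CFTR, induced with 500 ng/mL doxycycline for 48 h, then compound-treated 24 h at 37° C (10-point, 3-fold, top 10 μM). Surface HRP detected by luminescent substrate; EC50 from logistic fit, triplicates, normalized to lowest-concentration median.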

delF508-CFTR = molecular target: T2, delF508-CFTR (Homo sapiens, UniProt P13569, DEL508-508); assay: delF508-CFTR functional activity in primary human bronchial epithelial cells (HBECs), Multi-Transepithelial Clamp Circuit (MTECC-24) assay, equivalent short circuit current; format: cell-based; settings: primary CF HBECs; for MTECC24 CFHBEC-Amax %: relative to reference combination 2 μM 3-(6-(1-(2,2-difluorobenzo[d][1,3]dioxol-5-yl)cyclopropane-1-carboxamido)-3-methylpyridin-2-yl)benzoic acid (24 h) + 0.5 μM N-(2,4-di-tert-butyl-5-hydroxyphenyl)-4-oxo-1,4-dihydroquinoline-3-carboxamide; for EC50: test compound added 24 h before assay, potentiator (S)-3-amino-6-methoxy-N-(3,3,3-trifluoro-2-hydroxy-2-methylpropyl)-5-(trifluoromethyl)picolinamide present at assay, mean of at least two replicates, read-out: MTECC24 CFHBEC-EC50
T2 construct: functional activity of the CFTR channel (Chloride ion transport) in patient derived primary human bronchial epithelial cells; host or cells: patient-derived primary human bronchial epithelial cells (HBECs), delF508-CFTR
T2 sequence (P13569 with tags, fused parts or gaps DEL508-508): as above
In short: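 Patient-derived delF508 HBECs, grown at air-liquid interface about two weeks, were corrected with compound basolaterally for 24 h. Compound was then re-added apically and basolaterally in HEPES pH7.4 assay medium, with sequential modulators including forskolin and the picolinamide potentiator. Ieq was recorded, normalised to 0.1% DMSO wells, and EC50 fitted from 10-point curves.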

Compound	Emax (delF508-CFTR-HRP)	EC50 (delF508-CFTR-HRP)	MTECC24 CFHBEC-Amax % (delF508-CFTR)	EC50 (delF508-CFTR)
Cc1ccc(C2CCCCC2)c(OC2(C(=O)NS(=O)(=O)c3cccc(N4CCNC(=O)C4)n3)CC2)c1 [Example 2-33, 1-(2-Cyclohexyl-5-methylphenoxy)-N-((6-(3-oxopiperazin-1-yl)pyridin-2-yl)sulfonyl)cyclopropanecarboxamide]	114%	3960 nM	46%	66 nM
Cc1ccc(C2CCCCC2)c(OC2(C(=O)NS(=O)(=O)c3cccc(N4CCO[C@@H](C)C4)n3)CC2)c1 [Example 2-52, (S)-1-(2-Cyclohexyl-5-methylphenoxy)-N-((6-(2-methylmorpholino)pyridin-2-yl)sulfonyl)cyclopropane-1-carboxamide]	416%	1290 nM	75%	7 nM
O=C(NS(=O)(=O)c1cccc(N2CC[C@H](O)C2)n1)C1(Oc2cc(Cl)ccc2N2CC3CCCC3C2)CC1 (stereo partly drawn) [Example 9-24, 1-(5-Chloro-2-(hexahydrocyclopenta[c]pyrrol-2(1H)-yl)phenoxy)-N-((6-((S)-3-hydroxypyrrolidin-1-yl)pyridin-2-yl)sulfonyl)cyclopropanecarboxamide]	641%	2170 nM	135.8%	389 nM
Cc1ccc(C2CCCCC2)c(OC2(C(=O)NS(=O)(=O)c3nc(N)ccc3F)CC2)c1 [Example 1-7, N-((6-Amino-3-fluoropyridin-2-yl)sulfony)-1-(2-cyclohexyl-5-methylphenoxy)cyclopropane-1-carboxamide]	109%	2830 nM	54%	40 nM
O=C(NS(=O)(=O)c1cccc(N2CC[C@H](O)C2)n1)C1(Oc2cc(Cl)ccc2-c2cccc(C(F)(F)F)c2)CC1 [Example 5-2, (S)-1-((4-Chloro-3′-(trifluoromethyl)-[1,1′-biphenyl]-2-yl)oxy)-N-((6-(3-hydroxypyrrolidin-1-yl)pyridin-2-yl)sulfonyl)cyclopropane-1-carboxamide]	313%	1580 nM	62%	99 nM
O=C(NS(=O)(=O)c1cccc(N2CC[C@H](O)C2)n1)C1(Oc2cc(Cl)ccc2N2CCC(C(F)(F)F)CC2)CC1 [Example 9-16, (S)-1-(5-Chloro-2-(4-(trifluoromethyl)piperidin-1-yl)phenoxy)-N-((6-(3-hydroxypyrrolidin-1-yl)pyridin-2-yl)sulfonyl)cyclopropanecarboxamide]	317%	2200 nM	138.2%	865 nM
Cc1ccc(C2CCC(F)(F)CC2)c(OC2(C(=O)NS(=O)(=O)c3cccc(N4CC(C)(NC(=O)OC(C)(C)C)C4)n3)CC2)c1 [Example 3-6, Tert-butyl (1-(6-(N-(1-(2-(4,4-difluorocyclohexyl)-5-methylphenoxy)cyclopropane-1-carbonyl)sulfamoyl)pyridin-2-yl)-3-methylazetidin-3-yl)carbamate]	380%	2660 nM	57%	57 nM
C[C@]1(O)CCN(c2cccc(S(=O)(=O)NC(=O)C3(Oc4cc(Cl)ccc4N4CC5(CCCCC5)C4)CC3)n2)C1 [Example 9-7, (S)-1-(5-Chloro-2-(2-azaspiro[3.5]nonan-2-yl)phenoxy)-N-((6-(3-hydroxy-3-methylpyrrolidin-1-yl)pyridin-2-yl)sulfonyl)cyclopropanecarboxamide]	472%	580 nM	131.1%	123 nM
Cc1ccc(-c2cccc(OC(F)(F)F)c2)c(OC2(C(=O)NS(=O)(=O)c3cccc(N4CC(C)(O)C4)n3)CC2)c1 [Example 5-8, N-((6-(3-Hydroxy-3-methylazetidin-1-yl)pyridin-2-yl)sulfonyl)-1-((4-methyl-3′-(trifluoromethoxy)-[1,1′-biphenyl]-2-yl)oxy)cyclopropane-1-carboxamide]	371%	2480 nM	57%	6 nM
